T1: Abp1p SH3 domain (SH3 domain from the yeast Actin Binding Protein 1) (yeast, UniProt P15891 532-592)
T1 construct: 15N-labelled for the NMR work; also called AbpSH3
T1 sequence (looked up): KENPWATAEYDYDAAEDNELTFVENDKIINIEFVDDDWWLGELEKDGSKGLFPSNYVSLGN


Columns and labels:
[1] = tested on: Abp1p SH3 domain (AbpSH3); experiment: Isothermal titration calorimetry of peptide binding to AbpSH3; set-up: species or system yeast
Protocol: Binding isotherms were recorded as previously at 30°C [23]. Enthalpy changes were measured at 4 different temperatures (20, 25, 30, 35°C) and the slopes of temperature vs. enthalpy change were fit to yield the change in heat capacity. All samples were in 50 mM sodium phosphate, 100 mM NaCl, 1 mM EDTA pH 7.0. Errors are ±95% confidence intervals except the ΔCP values, which report the standard error of the least squared fit to the data (ΔH vs. temperature).

[2] = tested on: Abp1p SH3 domain (AbpSH3); experiment: Hydrogen exchange protection of AbpSH3 complexes by NMR; assay type: binding, yeast; conditions: sum of log amide protection factors of SII residues; 99% peptide-saturated 100 µM AbpSH3 in D2O, pH 7.0, 18°C, HSQC every 20 minutes over 24 hours
Protocol: All hydrogen exchange experiments were conducted in 50 mM sodium phosphate, 100 mM NaCl, 1 mM EDTA pH 7.0, 18°C. Based on the known binding constants, sufficient peptide was added to 100 µM AbpSH3 such that 99% saturation was achieved (this was confirmed by comparing the chemical shifts of previously recorded peptide-saturated samples) for 7 different AbpSH3 complexes (Table S4). The samples were lyophilized and resuspended in D2O, and ^1H-^15N HSQC spectra were recorded every 20 minutes over a period of 24 hours. Many peaks disappeared over time. Intensities of peaks were fit to exponential curves, to yield observed rate constants (kexchange) for each amide group. The rate constant was converted to log protection factor (P), log10(kintrinsic/kexchange) using values for amide protection of free amino acids (http://hx2.med.upenn.edu/download.html). […] These residues became protected to different degrees in the different complexes although they all still exchanged sufficiently fast for their rates to be accurately calculated within the timeframe of the experiment. The biggest difference for the sum between complexes is about 20, which corresponds to a residue ΔΔG of −2.8 kcal/mol, which is approximately the difference between the strongest and weakest peptide binding energy.

[3] = tested on: Abp1p SH3 domain (AbpSH3); experiment: Co-linear chemical shift perturbation (CCSP) analysis of peptide-saturated AbpSH3 complexes by NMR; assay type: binding, yeast; conditions: rank among the 24 complexes; >99% peptide-saturated
Protocol: NMR experiments were carried out at 30°C on Varian 500 MHz spectrometers equipped with pulsed field gradients and a triple resonance probe with actively shielded z-gradients. Data were processed and analyzed using nmrPipe/nmrDraw and nmrView. All spectra were recorded in 50 mM sodium phosphate, 100 mM NaCl, 1 mM EDTA pH 7.0. ^1H-^15N HSQC spectra were collected using standard methods. ^1H-^13C HSQC spectra were recorded using constant time HSQC experiments.
AbpSH3 complexes were assigned using the established assignments of ArkA-bound and free AbpSH3 [8]; serial peptide additions were used to monitor the direction that the peaks moved to assign the final position of the SH3 resonances. […] The assignments were also compared to the previously determined ArkA-AbpSH3 complex resonances. […]
The combined ^1H and ^15N chemical shift differences (in ppm) between each pair of resonances that define the lines x, y and z were calculated using the following expression: δΔ = √((Nppm shift * 0.1)^2+(Hppm shift)^2), where Nppm shift is the difference in ppm in the nitrogen dimension and Hppm is the difference in ppm in the proton dimension. The perpendicular distance (p) between the resonance and the CCSP line was calculated in the following way: p = √(x^2−s^2), where x = length of line connecting resonance to peptide free resonance and s = scalar projection. […]

[4] = molecular target: T1, Abp1p SH3 domain (SH3 domain from the …); experiment: NMR titration; 1H-15N HSQC of AbpSH3 (70-100 µM) with serial peptide additions to 99% or greater saturation; 30°C; 50 mM sodium phosphate, 100 mM NaCl, 1 mM EDTA pH 7.0; conditions: both partners purified

| Molecule | change in heat capacity (ΔCp) on complex formation ([1]; ITC, enthalpy changes at 20, 25, 30, 35°C, slope of ΔH vs. temperature, 50 mM sodium phosphate, 100 mM NaCl, 1 mM EDTA pH 7.0) [kcal/mol K] | binding energy ([1]; rank among the 24 complexes, ITC at 30°C) | SII hydrogen exchange protection (Σ LogP in SII) [2] | CCSP values in AbpSH3 [3] | binding result [4] |
| --- | --- | --- | --- | --- | --- |
| PRR: 15-residue peptide found N-terminal to AbpSH3 (residues 516 to 530 in Abp1p) (Ac-AAPPPPPRRATPEKK-NH2) | ~0 | the lowest measured | ~0 | lowest |  |
| Ac-AAPPPPPRRATPEKK-NH2 (peptide, UniProt P15891 516-530, looked up, residues 516 to 530 of yeast Abp1p, proline-rich region N-terminal to the SH3 domain, 15 residues; source: synthetic peptide (Biomer tech), purified to greater than 95% by HPLC) [PRR1, 15-residue peptide found N-terminal to AbpSH3 (residues 516 to 530 in Abp1p)] |  |  |  |  | binds |

— article PMC3520974, “Differential Dynamic Engagement within 24 SH3 Domain: Peptide Complexes Revealed by Co-Linear Chemical Shift Perturbation Analysis” (PLoS ONE, 2012)
